Where a name gives a salt, the structure may show the parent alone. Read-outs that look alike come from different tables or passages of the source.
Target: T1, androgen receptor (AR) (Rattus norvegicus, UniProt P15207)
T1 construct: purchased Invitrogen, Madison, Wis
T1 sequence (P15207 651-902 limits assumed): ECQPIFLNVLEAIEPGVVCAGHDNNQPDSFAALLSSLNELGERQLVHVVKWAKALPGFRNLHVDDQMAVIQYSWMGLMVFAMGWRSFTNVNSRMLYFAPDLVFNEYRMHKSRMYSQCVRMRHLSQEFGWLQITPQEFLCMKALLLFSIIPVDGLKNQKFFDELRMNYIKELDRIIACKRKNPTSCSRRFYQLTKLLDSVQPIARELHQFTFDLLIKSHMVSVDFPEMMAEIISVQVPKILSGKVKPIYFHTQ
Assay: androgen receptor binding assay (fluorescence polarization, Fluormone AL Green competition)
Protocol: The assay was performed as specified by the manufacturer (Invitrogen, Madison, Wis.). Briefly, 1 μl of 10 mM compound was added to 500 μl of AR screening buffer in a 1.5 ml eppendorf tube to make a 2×10^−5M stock. 10-fold serial dilutions of the test compounds were prepared ranging in concentration from 10^−5M to 10^−12M. Each dilution was added in triplicate to a black 384-microtiter plate. The test compounds will be diluted 2-fold in the final reaction. 2×AR-Fluormone™ complex was prepared with 2 nM Flourmone AL Green™ and 30 nM AR. 25 μl of 2× complex was aliquoted to each reaction well, such that the final reaction volume was 50 μl per well. Plate was sealed with a foil cover and incubated in the dark at room temperature for 4 h. Polarization values for each well were measured. The polarization values were plotted against the concentration of the test compound. […] As a control, a competition curve for R1881 (methyltrienolone) was performed for each assay. Curve Fitting was performed using GraphPad Prism® software from GraphPad™ Software Inc. Binding data are reported as a single determination if the experiment was run once only and as the average of experiments if the binding experiment was performed two or more times with that compound.
Where multiple data points have been taken, the value reported is the average of the multiple determinations.

[1] = single determination or average of multiple determinations, read-out: Binding IC50 (AR-Binding Affinity)

Structure (SMILES)	IC50 [nM]	IC50 [1] [nM]
Cc1c(N[C@@H](c2nnc(-c3ccc(F)c(F)c3)o2)[C@@H](C)O)ccc(C#N)c1Cl [Example 39, 2-Chloro-4-((1R,2R)-1-(5-(3,4-difluorophenyl)-1,3,4-oxadiazol-2-yl)-2-hydroxypropylamino)-3-methylbenzonitrile]	0.1	
Cc1c(N[C@H](CO)c2nnc(-c3ccc(C#N)cc3)o2)ccc(C#N)c1Cl [Example 58, (R)-2-Chloro-4-(1-(5-(4-cyanophenyl)-1,3,4-oxadiazol-2-yl)-2-hydroxyethylamino)-3-methylbenzonitrile]	10	
C=Cc1c(N[C@@H](c2nnc(-c3ccc(C#N)cc3)o2)[C@H](C)O)ccc(C#N)c1Cl [Example 80, 2-chloro-4-((1R,2S)-1-(5-(4-cyanophenyl)-1,3,4-oxadiazol-2-yl)-2-hydroxypropylamino)-3-vinylbenzonitrile]	1	
Cc1c(N[C@@H](c2nnc(-c3cccc(Cl)c3)o2)[C@H](C)O)ccc(C#N)c1Cl [Example 21, 2-chloro-4-((1R,2S)-1-(5-(3-chlorophenyl)-1,3,4-oxadiazol-2-yl)-2-hydroxypropylamino)-3-methylbenzonitrile]	3	
Cc1c(N[C@@H](c2nnc(-c3ccc(F)cc3)o2)[C@@H](C)O)ccc(C#N)c1Cl [Example 19, 2-chloro-4-((1R,2R)-1-(5-(4-fluorophenyl)-1,3,4-oxadiazol-2-yl)-2-hydroxypropylamino)-3-methylbenzonitrile]	19	
C[C@H](O)[C@@H](Nc1ccc(C#N)c2sccc12)c1nnc(-c2ccccc2)o1 [Example 63, 4-((1R,2S)-2-hydroxy-1-(5-phenyl-1,3,4-oxadiazol-2-yl)propylamino)benzo[b]thiophene-7-carbonitrile]	1	
Cc1c(N[C@@H](c2nnc(-c3ccc(NC(=O)c4ccccc4)cc3)o2)[C@@H](C)O)ccc(C#N)c1Cl [Example 69, N-(4-(5-((1R,2R)-1-(3-Chloro-4-cyano-2-methylphenylamino)-2-hydroxypropyl)-1,3,4-oxadiazol-2-yl)phenyl)benzamide]	> 1000	
Cc1c(N[C@@H](c2nnc(-c3ccc(Cl)cc3)o2)C(C)(C)O)ccc(C#N)c1Cl [Example 15, (R)-2-chloro-4-(1-(5-(4-chlorophenyl)-1,3,4-oxadiazol-2-yl)-2-hydroxy-2-methylpropylamino)-3-methylbenzonitrile]	0.5	
C[C@H](O)[C@@H](Nc1ccc(C#N)c2sccc12)c1nnc(-c2ccc(F)cc2)o1 [Example 62, 4-((1R,2S)-1-(5-(4-fluorophenyl)-1,3,4-oxadiazol-2-yl)-2-hydroxypropylamino)benzo[b]thiophene-7-carbonitrile]	15	
Cc1nnc([C@H](Nc2ccc(C#N)c(Cl)c2C)[C@H](C)O)o1 [Example 43, 2-Chloro-4-((1R,2S)-2-hydroxy-1-(5-methyl-1,3,4-oxadiazol-2-yl)propylamino)-3-methylbenzonitrile hydrochloride]	3	
C[C@@H](O)[C@@H](Nc1ccc(C#N)c(C(F)(F)F)c1)c1nnc(-c2ccc(C#N)cc2)o1 [Example 44, 4-((1R,2R)-1-(5-(4-Cyanophenyl)-1,3,4-oxadiazol-2-yl)-2-hydroxypropylamino)-2-(trifluoro-methyl)benzonitrile]	5	
CCCC(=O)Nc1ccc(-c2nnc([C@H](Nc3ccc(C#N)c(Cl)c3C)[C@@H](C)O)o2)cc1 [Example 71, N-(4-(5-((1R,2R)-1-(3-Chloro-4-cyano-2-methylphenylamino)-2-hydroxypropyl)-1,3,4-oxadiazol-2-yl)phenyl)butyramide]	280	
Cc1c(N[C@@H](c2nnc(-c3ccc(C#N)cc3)o2)[C@@H](C)O)ccc(C#N)c1C(F)(F)F [Example 31, 4-((1R,2R)-1-(5-(4-cyanophenyl)-1,3,4-oxadiazol-2-yl)-2-hydroxypropylamino)-3-methyl-2-(trifluoromethyl)benzonitrile]	5.9	
CC(=O)Nc1ccc(-c2nnc([C@H](Nc3ccc(C#N)c(Cl)c3C)[C@@H](C)O)o2)cc1 [Example 70, N-(4-(5-((1R,2R)-1-(3-Chloro-4-cyano-2-methylphenylamino)-2-hydroxypropyl)-1,3,4-oxadiazol-2-yl)phenyl)acetamide]	4	
Cc1c(N[C@@H](c2nnc(-c3ccccc3)s2)[C@H](C)O)ccc(C#N)c1Cl [Example 27, 2-chloro-4-((1R,2S)-2-hydroxy-1-(5-phenyl-1,3,4-thiadiazol-2-yl)propylamino)-3-methylbenzonitrile]	10	
Cc1c(N[C@@H](c2nnc(-c3ccc(F)cc3)s2)[C@@H](C)O)ccc(C#N)c1Cl [Example 28, 2-chloro-4-((1R,2R)-1-(5-(4-fluorophenyl)-1,3,4-thiadiazol-2-yl)-2-hydroxypropylamino)-3-methylbenzonitrile]	16	
Cc1c(N[C@@H](c2nnc(-c3ccc(C#N)cc3)o2)[C@@H](C)O)ccc(C#N)c1Cl [Example 23, 2-chloro-4-((1R,2R)-1-(5-(4-cyanophenyl)-1,3,4-oxadiazol-2-yl)-2-hydroxypropylamino)-3-methylbenzonitrile]	0.7	
Cc1c(N[C@@H](c2nnc(-c3ccccc3)o2)C(C)(C)O)ccc(C#N)c1Cl [Example 14, (R)-2-chloro-4-(2-hydroxy-2-methyl-1-(5-phenyl-1,3,4-oxadiazol-2-yl)propylamino)-3-methylbenzonitrile]		17
C[C@@H](O)[C@@H](Nc1ccc(C#N)c2sccc12)c1nnc(-c2ccccc2)o1 [Example 65, 4-((1R,2R)-2-hydroxy-1-(5-phenyl-1,3,4-oxadiazol-2-yl)propylamino)benzo[b]thiophene-7-carbonitrile]	1	
Cc1c(N[C@@H](c2nnc(-c3ccc(I)cc3)o2)[C@H](C)O)ccc(C#N)c1Cl [Example 57, 2-Chloro-4-((1R,2S)-2-hydroxy-1-(5-(4-iodophenyl)-1,3,4-oxadiazol-2-yl)propylamino)-3-methylbenzonitrile]	11	
Cc1c(N[C@@H](c2nnc(-c3ccc(-n4cccn4)cc3)o2)[C@H](C)O)ccc(C#N)c1Cl [Example 53, 4-((1R,2S)-1-(5-(4-(1H-Pyrazol-1-yl)phenyl)-1,3,4-oxadiazol-2-yl)-2-hydroxypropylamino)-2-chloro-3-methylbenzonitrile]	1	
C[C@@H](O)[C@@H](Nc1ccc(C#N)c2ccccc12)c1nnc(-c2ccc(C#N)cc2)o1 [Example 51, 4-((1R,2R)-1-(5-(4-Cyanophenyl)-1,3,4-oxadiazol-2-yl)-2-hydroxypropylamino)-1-naphthonitrile]		600
Cc1c(N[C@@H](c2nnc(-c3ccc(Cl)c(Cl)c3)o2)[C@@H](C)O)ccc(C#N)c1Cl [Example 32, 2-Chloro-4-((1R,2R)-1-(5-(3,4-dichlorophenyl)-1,3,4-oxadiazol-2-yl)-2-hydroxypropylamino)-3-methylbenzonitrile]	2	
Cc1c(N[C@H](CCO)c2nnc(-c3ccc(C#N)cc3)o2)ccc(C#N)c1Cl [Example 79, (R)-2-chloro-4-(1-(5-(4-cyanophenyl)-1,3,4-oxadiazol-2-yl)-3-hydroxypropylamino)-3-methylbenzonitrile]	2	
C[C@@H](O)[C@@H](Nc1ccc(C#N)c(C(F)(F)F)c1)c1nnc(-c2ccc(S(C)(=O)=O)cc2)o1 [Example 59, 4-((1R,2R)-2-hydroxy-1-(5-(4-(methylsulfonyl)phenyl)-1,3,4-oxadiazol-2-yl)propylamino)-2-(trifluoromethyl)benzonitrile]	> 1000	
C[C@H](O)[C@@H](Nc1ccc(C#N)c(Cl)c1Cl)c1nnc(-c2ccccc2)o1 [Example 33, 2,3-dichloro-4-((1R,2S)-2-hydroxy-1-(5-phenyl-1,3,4-oxadiazol-2-yl)propylamino)benzonitrile]	15	
Cc1c(N[C@@H](c2nnc(-c3ccc(F)c(O)c3)o2)[C@@H](C)O)ccc(C#N)c1Cl [Example 41, 2-Chloro-4-((1R,2R)-1-(5-(4-fluoro-3-hydroxyphenyl)-1,3,4-oxadiazol-2-yl)-2-hydroxypropylamino)-3-methylbenzonitrile]	0.02	
C[C@H](O)[C@@H](Nc1ccc(C#N)c(Cl)c1)c1nnc(-c2ccccc2)o1 [Example 12, 2-chloro-4-((1R,2S)-2-hydroxy-1-(5-phenyl-1,3,4-oxadiazol-2-yl)propylamino)benzonitrile]		300
Cc1c(N[C@@H](c2nnc(-c3ccc(O)c(Cl)c3)o2)[C@@H](C)O)ccc(C#N)c1Cl [Example 30, 2-Chloro-4-((1R,2R)-1-(5-(3-chloro-4-hydroxyphenyl)-1,3,4-oxadiazol-2-yl)-2-hydroxypropylamino)-3-methylbenzonitrile]	0.3	
Cc1c(N[C@@H](c2nnc(-c3ccc(Cl)c(Cl)c3)o2)[C@H](C)O)ccc(C#N)c1Cl [Example 55, 2-Chloro-4-((1R,2S)-1-(5-(3,4-dichlorophenyl)-1,3,4-oxadiazol-2-yl)-2-hydroxypropylamino)-3-methylbenzonitrile]	11	
